Like-named read-outs stand apart in the source and are kept apart here. Where a SMILES comes first, the peptide text is derived from it. Where no end group is shown, it is not given here.

In data set [1] the target is T1, ACE (Homo sapiens, UniProt P12821). Put plainly: ACE-inhibitory activity assay of synthetic peptides (HHL substrate, hippuric acid by RP-HPLC). It counts as biochemical. The note with it: for inhibition at 1000 µg/mL: 0.75 h, peptide 1 mg/mL; for IC50: Table 2, top 8 peptides. The method, then:
The peptides were prepared by the fmoc solid-phase method (purity ≥ 98% by HPLC) at Genscript Biotech Corporation (Nanjing, China). ACE-inhibitory activity of the synthesized peptides was evaluated according to the method of Ma. et al., with some modifications. In brief, 50 µL of sample was added into 150 µL of 5 mmol·L^−1 hippuryl-l-histidyl-l-leucine (HHL) and incubated for 10 min at 37 °C. Then, the enzymatic reaction was initiated by addition of 50 µL of 50 mU/mL ACE solution and kept at a constant temperature of 37 °C for 45 min. The reaction was then terminated by adding 250 µL of 1 mol·L^−1 HCl. RP-HPLC (Waters, Milford, MA, USA) was used to measure hippuric acid (HA) formation at 220 nm. […] The IC50 value represents the concentration of the peptide that inhibits 50% of ACE activity under the assay conditions.

For data set [2], the target named is T1, ACE. Put plainly: Surface plasmon resonance (SPR) assay. In kind it is binding. As for the experimental part: The affinity interaction between TLRFALHGME and ACE was verified by SPR experiments. In brief, 5 ug ACE was fixed on a COOH sensor chip by capture-coupling. Afterwards, 50–800 μmol·L^−1 of TLRFALHGME were injected sequentially into the chamber in PBS running buffer. The SPR assay was performed at 25 °C on an OpenSPRTM (Nicoya Lifesciences, Waterloo, QC, Canada). The conditions for the analysis were set at a flow rate of 20 μL·min^−1, the binding time was 240 s, and the disassociation time was 480 s. Chips were regenerated using a regeneration buffer (0.25% SDS). A one-to-one diffusion-corrected model was fitted to the wavelength shifts corresponding to the series of TLRFALHGME concentrations. The kinetic constant analysis was performed using TraceDrawer 1.9.1 software (Ridgeview Instruments AB, Uppsala, Sweden) to determine the association constant (Ka) and dissociation constant (Kd). The affinity constant (KD) was calculated as the ratio kd/ka.
(In SPR one partner is held on a chip, and binding of the other changes the refractive index at the surface.)

The conditions of data set [3]: attributed to multiple hydrophobic amino acids.
Data set [4] concerns the target T1, ACE. The note with it: read-out: IC50, ACE inhibition, cited from earlier work.
The next data set deals with hypertensive rats. Set-up: method as in PMID 34783331. As to conditions: cited from earlier work.
Data set [5] deals with T2, angiotensin-I-converting enzyme (UniProt P12822 34-1260).
T2 sequence (looked up): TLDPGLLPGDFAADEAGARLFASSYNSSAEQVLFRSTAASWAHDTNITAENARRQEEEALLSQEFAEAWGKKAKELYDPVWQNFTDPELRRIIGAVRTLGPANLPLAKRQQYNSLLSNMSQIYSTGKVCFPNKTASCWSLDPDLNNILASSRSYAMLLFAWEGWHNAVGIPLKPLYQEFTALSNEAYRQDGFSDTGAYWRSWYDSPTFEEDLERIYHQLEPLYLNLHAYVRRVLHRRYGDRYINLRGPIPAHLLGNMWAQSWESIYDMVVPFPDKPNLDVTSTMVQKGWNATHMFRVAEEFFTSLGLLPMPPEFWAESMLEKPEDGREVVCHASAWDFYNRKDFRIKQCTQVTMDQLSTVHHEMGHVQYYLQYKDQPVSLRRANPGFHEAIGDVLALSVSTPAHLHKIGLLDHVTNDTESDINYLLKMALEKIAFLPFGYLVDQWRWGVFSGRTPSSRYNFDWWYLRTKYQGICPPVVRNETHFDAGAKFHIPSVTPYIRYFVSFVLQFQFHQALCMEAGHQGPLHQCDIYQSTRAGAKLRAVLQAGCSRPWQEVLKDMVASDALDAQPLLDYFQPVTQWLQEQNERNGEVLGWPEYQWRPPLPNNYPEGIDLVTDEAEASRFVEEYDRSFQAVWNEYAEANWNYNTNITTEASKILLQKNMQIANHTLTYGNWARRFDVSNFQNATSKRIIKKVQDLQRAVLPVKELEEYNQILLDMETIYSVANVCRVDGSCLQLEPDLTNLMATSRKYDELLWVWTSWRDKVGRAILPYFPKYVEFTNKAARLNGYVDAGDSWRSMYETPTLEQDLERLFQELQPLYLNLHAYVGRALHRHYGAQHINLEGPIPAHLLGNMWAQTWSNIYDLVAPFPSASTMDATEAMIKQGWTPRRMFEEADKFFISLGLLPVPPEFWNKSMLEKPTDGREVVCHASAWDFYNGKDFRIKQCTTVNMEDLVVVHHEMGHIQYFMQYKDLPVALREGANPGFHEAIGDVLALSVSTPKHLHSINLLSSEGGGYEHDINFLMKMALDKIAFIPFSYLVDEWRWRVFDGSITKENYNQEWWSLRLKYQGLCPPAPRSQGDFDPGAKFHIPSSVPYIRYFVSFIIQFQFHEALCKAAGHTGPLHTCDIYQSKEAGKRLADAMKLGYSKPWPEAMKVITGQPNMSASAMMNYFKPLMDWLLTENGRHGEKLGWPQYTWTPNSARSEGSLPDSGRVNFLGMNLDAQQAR

The target of data set [6] is T2, angiotensin-I-converting enzyme. The experiment in a line: cell-based or functional assay.
Where [7] appears, read: from Volutharpa ampullacea perryi hydrolysate, Zn-SBA-15-immobilized ACE and HPLC.

T1 sequence (P12821 30-1306, species assumed): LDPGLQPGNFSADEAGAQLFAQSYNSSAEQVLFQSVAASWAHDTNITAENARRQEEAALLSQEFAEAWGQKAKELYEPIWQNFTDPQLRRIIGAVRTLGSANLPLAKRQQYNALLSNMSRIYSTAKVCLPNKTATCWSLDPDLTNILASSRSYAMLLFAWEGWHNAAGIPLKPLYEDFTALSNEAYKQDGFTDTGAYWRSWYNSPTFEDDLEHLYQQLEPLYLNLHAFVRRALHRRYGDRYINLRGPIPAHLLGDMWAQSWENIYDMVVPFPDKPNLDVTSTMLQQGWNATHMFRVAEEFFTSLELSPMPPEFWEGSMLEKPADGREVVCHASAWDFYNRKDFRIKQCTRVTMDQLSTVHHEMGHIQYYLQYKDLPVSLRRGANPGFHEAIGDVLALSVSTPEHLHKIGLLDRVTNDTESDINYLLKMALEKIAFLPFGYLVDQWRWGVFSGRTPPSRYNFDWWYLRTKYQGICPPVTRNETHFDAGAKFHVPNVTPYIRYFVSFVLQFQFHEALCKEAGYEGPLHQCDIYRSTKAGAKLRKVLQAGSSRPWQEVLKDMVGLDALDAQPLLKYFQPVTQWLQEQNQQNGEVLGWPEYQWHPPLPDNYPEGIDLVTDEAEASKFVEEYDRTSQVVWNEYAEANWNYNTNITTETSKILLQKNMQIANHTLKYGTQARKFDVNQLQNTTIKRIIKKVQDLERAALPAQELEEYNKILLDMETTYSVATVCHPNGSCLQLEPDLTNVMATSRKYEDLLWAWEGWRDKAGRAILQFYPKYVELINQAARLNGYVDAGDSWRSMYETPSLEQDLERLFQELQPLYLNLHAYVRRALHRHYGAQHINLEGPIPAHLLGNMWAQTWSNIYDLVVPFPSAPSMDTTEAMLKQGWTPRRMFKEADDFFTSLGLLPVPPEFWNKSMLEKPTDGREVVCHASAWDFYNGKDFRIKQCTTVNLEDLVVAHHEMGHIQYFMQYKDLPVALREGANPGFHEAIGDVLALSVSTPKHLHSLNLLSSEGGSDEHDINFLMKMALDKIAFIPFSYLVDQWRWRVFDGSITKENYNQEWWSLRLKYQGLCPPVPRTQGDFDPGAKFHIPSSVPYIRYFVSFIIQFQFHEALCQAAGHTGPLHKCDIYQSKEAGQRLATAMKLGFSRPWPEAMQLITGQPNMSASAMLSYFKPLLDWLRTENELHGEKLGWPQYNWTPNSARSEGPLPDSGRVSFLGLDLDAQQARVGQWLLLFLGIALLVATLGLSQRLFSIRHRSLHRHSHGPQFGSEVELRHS

In general, inhibition refers to the drop in the measured response relative to a control, in per cent. In general, IC50 refers to the concentration that inhibits the measured activity by half. As a reminder, the Kd is a measure of binding affinity in units of concentration. On ACE [1], TLRFALHGME [TLRFALHGME] gave an inhibition at 1000 µg/mL above 50% and a 50% inhibitory concentration (IC50) of 93.5 µM. Moreover, on ACE [2] (25 °C, 50–800 µmol·L^−1 peptide, read-out: Kd (dissociation rate constant)), the koff stood at 0.002 s⁻¹. At ACE [2] (KD, printed in Figure 7), this molecule yielded a Kd of 80.8 µM. In addition, the Kd on ACE [2] (abstract, read-out: Kd (binding affinity to ACE)) came to 80.9 µM.

For the molecule `CC(C)C[C@H](NC(=O)[C@H](C)NC(=O)[C@H](C)NC(=O)[C@@H](N)CO)C(=O)O` [SAAL] (H-SAAL-OH; N-terminus and C-terminus assumed), on ACE [1], the inhibition at 1000 µg/mL was above 50% and the IC50 was determined as 883 µM.

Regarding TFTGA [TFTGA], at ACE [1], the inhibition at 1000 µg/mL was above 50% and the IC50 was determined as 694 µM.

At ACE [1], TLFGL [TLFGL] returned an inhibition at 1000 µg/mL above 50% and an IC50 of 57.5 µM. Moreover, in data set [3], the Solubility result is “low solubility”.

With VYP, the IC50 on ACE [4] (from lizard fish protein hydrolysates, MA-IML) is 108 µM.

As for VGPAGRPG, the IC50 with ACE [4] (setting [7]) was 4660 µM.

At ACE [1], RSTGALAL [RSTGALAL] returned an inhibition at 1000 µg/mL above 50% and an IC50 of 5840 µM.

For the molecule `CC(C)C[C@H](NC(=O)[C@@H](N)C(C)C)C(=O)NCC(=O)N[C@@H](C)C(=O)O` [VLGA] (H-VLGA-OH; N-terminus and C-terminus assumed), at ACE [1], the inhibition at 1000 µg/mL is above 50% and the IC50 was 1370 µM.

As for `CC(C)C[C@H](NC(=O)[C@H](CC(C)C)NC(=O)[C@@H](NC(=O)[C@@H](N)Cc1ccc(O)cc1)C(C)C)C(=O)O` [YVLL] (H-YVLL-OH; N-terminus and C-terminus assumed), at ACE [1], the inhibition at 1000 µg/mL was above 50% and the IC50 came out at 154 µM.

As to WGAP, in the data set with hypertensive rats, the “Reduction of diastolic blood pressure” value is given as at most 28.56 ± 2.71 mmHg and the “Reduction of systolic blood pressure” value is given as “up to 42.66 ± 2.87 mmHg”.

Consider `CC(C)C[C@H](NC(=O)[C@H](CC(C)C)NC(=O)[C@@H](NC(=O)[C@@H](N)[C@@H](C)O)C(C)C)C(=O)O` [TVLL] (H-TVLL-OH; N-terminus and C-terminus assumed), for which, at ACE [1], the inhibition at 1000 µg/mL was above 50% and the half-maximal inhibitory concentration (IC50) turned out to be 582 µM.

Consider IVTNWDDMEL, for which the IC50 with ACE [4] (setting [7]) is 2080 µM.

B1: YVLL (peptide)
peptide: YVLL
For B1, the ACE-inhibitory activity (hippuric acid formed from HHL, RP-HPLC), IC50 in data set [5] was 154 µM.

B2: SAAL (peptide)
peptide: SAAL
The molecule B2 returned an ACE-inhibitory activity (hippuric acid formed from HHL, RP-HPLC), IC50 in data set [5] of 883 µM.

B3: TLRFALHGME (peptide)
peptide: TLRFALHGME
notes: source: Takifugu flavidus skin hydrolysate (alcalase, <1 kDa fraction); also synthetic peptide (Fmoc solid phase, Genscript)
For the molecule B3, the “ACE-inhibitory activity (hippuric acid formed from HHL, RP-HPLC), IC50” value (shortened to “ACE-inhibitory activity”) in data set [6] was 93.5 µM.

B4: VLGA (peptide)
peptide: VLGA
In data set [5], B4 showed an ACE-inhibitory activity (hippuric acid formed from HHL, RP-HPLC), IC50 of 1370 µM.

B5: TFTGA (peptide)
peptide: TFTGA
With B5, the “ACE-inhibitory activity” value in data set [6] amounted to 694 µM.

B6: RSTGALAL (peptide)
peptide: RSTGALAL
Turning to B6, the “ACE-inhibitory activity” value in data set [6] is 5840 µM.

B7: TLFGL (peptide)
peptide: TLFGL
As for B7, the “ACE-inhibitory activity” value in data set [6] was 57.5 µM.

B8: TVLL (peptide)
peptide: TVLL
For B8, the ACE-inhibitory activity (hippuric acid formed from HHL, RP-HPLC), IC50 in data set [5] was 582 µM.

Source of the values: publication PMC10608451, “Affinity Purification and Molecular Characterization of Angiotensin-Converting Enzyme (ACE)-Inhibitory Peptides from Takifugu flavidus” (Marine Drugs, 2023).
